The results in this text go back to patent publication US10112935B2, “Indazolyl thiadiazolamines and related compounds for inhibition of Rho-associated protein kinase and the treatment of disease” (Lycera Corporation, priority 2015, dated 2018).

Experiment [1] has as its target GST-tagged human ROCK2 catalytic domain 1-553 (Homo sapiens (Human), UniProt O75116). Description: Inhibition of Rho-associated protein kinase isoform 2 (LANCE Ultra ULight-CREBtide FRET kinase assay). In kind it is biochemical. To be noted: for IC50: 30 μM was the highest concentration analyzed; for Selectivity for ROCK2 over ROCK1 (IC50 ROCK1 / IC50 ROCK2): selectivity ROCK2 vs ROCK1. The procedure, abridged:
(§1)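 Baculovirus-expressed kinase phosphorylated ULight-CREBtide for 90 min at room temperature before the reaction was stopped with 10 mM EDTA. Phospho-substrate was detected by TR-FRET with 1 nM Europium-anti-phospho-CREB (Ser133) antibody after 60 min at room temperature.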
A general note: TR-FRET usually uses a lanthanide donor and a delayed reading to cut background.

Experiment [2] has as its target GST-tagged human ROCK1 catalytic domain 1-477 (Homo sapiens (Human), UniProt Q13464). The experiment can be described thus: Inhibition of Rho-associated protein kinase isoform 1 (LANCE Ultra ULight-CREBtide FRET kinase assay). In kind it is biochemical. To be noted: 30 μM was the highest concentration analyzed. The method, boiled down:
as §1

Sequence of GST-tagged human ROCK1 catalytic domain 1-477 (Q13464 1-477): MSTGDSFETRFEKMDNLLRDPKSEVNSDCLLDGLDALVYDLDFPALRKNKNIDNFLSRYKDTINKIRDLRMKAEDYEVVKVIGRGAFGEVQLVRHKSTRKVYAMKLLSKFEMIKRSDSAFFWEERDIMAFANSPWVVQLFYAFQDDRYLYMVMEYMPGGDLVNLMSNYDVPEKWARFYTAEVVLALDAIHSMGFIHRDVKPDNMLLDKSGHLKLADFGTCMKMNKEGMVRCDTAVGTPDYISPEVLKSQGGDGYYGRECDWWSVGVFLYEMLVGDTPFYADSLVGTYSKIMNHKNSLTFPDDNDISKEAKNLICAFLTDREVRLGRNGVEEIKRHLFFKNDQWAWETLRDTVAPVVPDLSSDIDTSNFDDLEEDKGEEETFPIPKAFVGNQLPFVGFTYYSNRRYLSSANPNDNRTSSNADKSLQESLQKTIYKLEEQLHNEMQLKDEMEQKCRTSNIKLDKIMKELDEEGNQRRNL
Sequence of GST-tagged human ROCK2 catalytic domain 1-553 (O75116 1-553): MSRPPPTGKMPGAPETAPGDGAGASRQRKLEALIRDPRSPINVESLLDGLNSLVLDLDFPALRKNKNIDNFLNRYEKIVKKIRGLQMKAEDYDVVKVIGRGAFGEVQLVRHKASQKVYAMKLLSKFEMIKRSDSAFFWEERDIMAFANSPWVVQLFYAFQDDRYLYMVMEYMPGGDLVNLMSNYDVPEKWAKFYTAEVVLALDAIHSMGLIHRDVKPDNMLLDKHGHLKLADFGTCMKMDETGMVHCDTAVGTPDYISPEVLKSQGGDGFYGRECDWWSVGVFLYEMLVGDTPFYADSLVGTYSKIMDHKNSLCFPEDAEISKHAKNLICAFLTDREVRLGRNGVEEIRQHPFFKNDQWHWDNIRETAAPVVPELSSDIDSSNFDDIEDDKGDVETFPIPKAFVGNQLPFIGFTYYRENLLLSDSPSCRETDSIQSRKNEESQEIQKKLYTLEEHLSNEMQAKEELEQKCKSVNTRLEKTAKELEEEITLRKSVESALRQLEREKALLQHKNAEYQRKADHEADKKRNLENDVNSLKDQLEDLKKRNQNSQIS

The IC50 is the midpoint of a concentration-inhibition curve. High values mean a need for much substance, low ones inhibition by little substance. Consider `CC(C)c1cn2cccc(-c3nnc(Nc4ccc5[nH]ncc5c4Cl)s3)c2n1` [Example 52B], for which the IC50 in experiment [1] and in experiment [2] was below 1 µM throughout. In experiment [1], the “Selectivity for ROCK2 over ROCK1 (IC50 ROCK1 / IC50 ROCK2)” value (“Selectivity … (IC50 ROCK1 / IC50 ROCK2)” for short) was below 5.
Consider `NCCn1cc(C(=O)Nc2cc(-c3nnc(Nc4ccc5[nH]ncc5c4)s3)ccn2)cn1.O=C(O)C(F)(F)F` [Example 35BV], for which, in experiment [1], the IC50 is below 1 µM and the “Selectivity … (IC50 ROCK1 / IC50 ROCK2)” value is recorded as above 50. The same molecule gave an IC50 in experiment [2] below 1 µM.
In the case of `O=C(O)c1cccc(-c2nnc(Nc3ccc4[nH]ncc4c3)s2)c1` [Example A-9], in experiment [1], the IC50 lay within 1 to 15 µM and the “Selectivity … (IC50 ROCK1 / IC50 ROCK2)” value was above 5. Besides, in experiment [2], the IC50 lay in the range of 15 to 30 µM.
On to `Cn1cc(C(=O)Nc2cccc(-c3nnc(Nc4ccc5[nH]ncc5c4)s3)c2)cn1` [Example A-41], for which, in experiment [1], the IC50 was below 1 µM and the “Selectivity … (IC50 ROCK1 / IC50 ROCK2)” value is above 100. Moreover, in experiment [2], the IC50 was above 30 µM.
Regarding `CC(C)NC(=O)COc1cncc(-c2nnc(Nc3ccc4[nH]ncc4c3)s2)c1` [Example 75L], the “Selectivity … (IC50 ROCK1 / IC50 ROCK2)” value in experiment [1] was above 75. In experiment [2], this molecule had an IC50 above 30 µM.
For the molecule `CC(=O)Nc1ccc(S(C)(=O)=O)c(-c2nnc(Nc3ccc4[nH]ncc4c3Cl)s2)c1` [Example 48E], in experiment [1], the IC50 lay in the range of 1 to 15 µM and the “Selectivity … (IC50 ROCK1 / IC50 ROCK2)” value is listed as below 5. The molecule also registered an IC50 in experiment [2] of 15 to 30 µM.
For `CC(=O)c1ccc(-c2cn3cccc(-c4nnc(Nc5ccc6[nH]ncc6c5Cl)s4)c3n2)cc1` [Example 51, 1-(4-(8-(5-((4-Chloro-1H-indazol-5-yl)amino)-1,3,4-thiadiazol-2-yl)imidazo[1,2-a]pyridin-2-yl)phenyl)ethan-1-one], in experiment [1], the IC50 was below 1 µM and the “Selectivity … (IC50 ROCK1 / IC50 ROCK2)” value is given as above 100. In experiment [2], the IC50 is above 30 µM.
With `CS(=O)(=O)Nc1cccc(-c2nnc(Nc3ccc4[nH]ncc4c3)s2)c1` [Example A-19], the IC50 is below 1 µM in experiment [1] and above 30 µM in experiment [2]. For the same molecule, the “Selectivity … (IC50 ROCK1 / IC50 ROCK2)” value in experiment [1] is reported as above 100.
As to `Cc1cnn(CC(=O)Nc2cccc(-c3nnc(Nc4ccc5[nH]ncc5c4Cl)s3)c2)c1` [Example 35BI], in experiment [1], the IC50 was below 1 µM and the “Selectivity … (IC50 ROCK1 / IC50 ROCK2)” value is recorded as above 100. In experiment [2], this molecule had an IC50 of 1 to 15 µM.
For `Cn1c(C2CC2)nc2c(-c3nnc(Nc4ccc5[nH]ncc5c4)s3)cccc21` [Example 56G], in experiment [1], the IC50 was below 1 µM and the “Selectivity … (IC50 ROCK1 / IC50 ROCK2)” value is above 100. The same molecule gave an IC50 in experiment [2] above 30 µM.
`O=C(Nc1cccc(-c2nnc(Nc3ccc4[nH]ncc4c3)s2)c1)c1c[nH]cn1` [Example A-49]: the IC50 was below 1 µM in experiment [1] and above 30 µM in experiment [2]. Moreover, the “Selectivity … (IC50 ROCK1 / IC50 ROCK2)” value in experiment [1] is listed as above 100.
With `NC(Cc1ccc(Cl)cc1)C(=O)Nc1cccc(-c2nnc(Nc3ccc4[nH]ncc4c3Cl)s2)c1` (centres unmarked) [Example 35BF], in experiment [1], the IC50 is below 1 µM and the “Selectivity … (IC50 ROCK1 / IC50 ROCK2)” value is recorded as above 5. In addition, in experiment [2], the IC50 lay within 1 to 15 µM.
Take `NCCn1cc(C(=O)Nc2cccc(-c3nnc(Nc4ccc5[nH]ncc5c4)s3)c2)cn1` [Example 35CE]: in experiment [1], the IC50 is below 1 µM and the “Selectivity … (IC50 ROCK1 / IC50 ROCK2)” value is reported as above 5. The IC50 in experiment [2] is below 1 µM.
Consider `O=C(Cc1ccccn1)Nc1cccc(-c2nnc(Nc3ccc4[nH]ncc4c3Cl)s2)c1` [Example 35BM], for which, in experiment [1], the IC50 is below 1 µM and the “Selectivity … (IC50 ROCK1 / IC50 ROCK2)” value is recorded as above 100. This molecule also registered an IC50 in experiment [2] above 30 µM.
On to `Nc1cccc(-c2nnc(Nc3ccc4[nH]ncc4c3)s2)n1.O=C(O)C(F)(F)F` [Example 35CR], for which the IC50 in experiment [1] is below 1 µM; in experiment [2] it was above 30 µM. For the same molecule, the “Selectivity … (IC50 ROCK1 / IC50 ROCK2)” value in experiment [1] was above 5.
As for `CC(C)NC(=O)COc1cncc(-c2nnc(Nc3ccc4[nH]ncc4c3)s2)c1` [Example A-7], in experiment [1], the IC50 is below 1 µM and the “Selectivity … (IC50 ROCK1 / IC50 ROCK2)” value is given as above 50. The IC50 in experiment [2] is above 30 µM.
For `Clc1c(Nc2nnc(-c3cncc(-c4ncco4)c3)s2)ccc2[nH]ncc12` [Example 46P] the same measures were below 1 µM, above 100 and above 30 µM.
Turning to `c1cc2[nH]ncc2cc1Nc1nnc(C2CCCNC2)s1` (centres unmarked) [Example A-33], in experiment [1], the IC50 fell in the range of 1 to 15 µM and the “Selectivity … (IC50 ROCK1 / IC50 ROCK2)” value was below 5. Moreover, the IC50 in experiment [2] is 15 to 30 µM.
Regarding `O=C(Nc1cc(-c2nnc(Nc3ccc4[nH]ncc4c3Cl)s2)ccn1)N1CCOCC1` [Example 35A], the IC50 in experiment [1] and in experiment [2] was below 1 µM each time. Moreover, the “Selectivity … (IC50 ROCK1 / IC50 ROCK2)” value in experiment [1] is recorded as above 5.
On to `N[C@@H](Cc1ccc(O)cc1)C(=O)Nc1cccc(-c2nnc(Nc3ccc4[nH]ncc4c3Cl)s2)c1.O=C(O)C(F)(F)F` [Example 35AK], for which, in experiment [1], the IC50 was below 1 µM and the “Selectivity … (IC50 ROCK1 / IC50 ROCK2)” value is on record as below 5. In experiment [2], this molecule had an IC50 below 1 µM.
For `NCCS(=O)(=O)Nc1cccc(-c2nnc(Nc3ccc4[nH]ncc4c3)s2)c1` [Example A-1], in experiment [1], the IC50 lay in the range of 1 to 15 µM and the “Selectivity … (IC50 ROCK1 / IC50 ROCK2)” value is given as below 5. Besides, the IC50 in experiment [2] lay within 1 to 15 µM.
As for `N#Cc1cccc(-c2nnc(Nc3ccc4[nH]ncc4c3Cl)s2)c1` [Example 35Z], in experiment [1], the IC50 was below 1 µM and the “Selectivity … (IC50 ROCK1 / IC50 ROCK2)” value is recorded as above 100. The molecule further registered an IC50 in experiment [2] above 30 µM.
With `CN1CCN(c2cc(-c3nnc(Nc4ccc5[nH]ncc5c4Cl)s3)ccn2)C1=O` [Example 38, 1-(4-(5-((4-Chloro-1H-indazol-5-yl)amino)-1,3,4-thiadiazol-2-yl)pyridin-2-yl)-3-methylimidazolidin-2-one], in experiment [1], the half-maximal inhibitory concentration (IC50) was below 1 µM and the “Selectivity … (IC50 ROCK1 / IC50 ROCK2)” value is above 5. For the same molecule, the IC50 in experiment [2] is below 1 µM.
In the case of `CC(=O)Oc1cccc(-c2nnc(Nc3ccc4[nH]ncc4c3Cl)s2)c1` [Example 35AG], in experiment [1], the IC50 is below 1 µM and the “Selectivity … (IC50 ROCK1 / IC50 ROCK2)” value is above 100. In experiment [2], this molecule displayed an IC50 above 30 µM.
Regarding `Cn1cc(C(=O)Nc2cc(-c3nnc(Nc4ccc5[nH]ncc5c4)s3)ccn2)cn1` [Example 75I], in experiment [1], the IC50 was below 1 µM and the “Selectivity … (IC50 ROCK1 / IC50 ROCK2)” value was below 5. Further, the IC50 in experiment [2] was below 1 µM.
For `Cn1c(C2CCOCC2)nc2c(-c3nnc(Nc4ccc5[nH]ncc5c4)s3)cccc21` [Example 56F], in experiment [1], the IC50 was below 1 µM and the “Selectivity … (IC50 ROCK1 / IC50 ROCK2)” value is reported as above 100. In experiment [2], the IC50 was above 30 µM.
On the same counts, the results for `CN1C(=O)Cc2c(-c3nnc(Nc4ccc5[nH]ncc5c4Cl)s3)cccc21.O=C(O)C(F)(F)F` [Example 43, 4-(5-((4-Chloro-1H-indazol-5-yl)amino)-1,3,4-thiadiazol-2-yl)-1-methylindolin-2-one 2,2,2-trifluoroacetic Acid Solvate] are below 1 µM, above 5 and 1 to 15 µM.
In the case of `CN(C)Cc1cc(-c2ncco2)cc(-c2nnc(Nc3ccc4[nH]ncc4c3Cl)s2)c1` [Example 75P], the IC50 in experiment [1] is below 1 µM; in experiment [2] it was 1 to 15 µM. In addition, the “Selectivity … (IC50 ROCK1 / IC50 ROCK2)” value in experiment [1] is on record as above 5.
